# Experimental data reported in patent US6524820B1, “Lectins and coding sequences” (University of Georgia Research Foundation, Inc., priority 1997, dated 2003).
# Tests used:
# recombinant XL35 [1] = experiment: Inhibition of XL35 erythrocyte agglutination activity; type: cell-based, Xenopus laevis; conditions: 2 M urea
# Description: The assay was performed essentially as described using trypsinized, glutaraldehyde-fixed rabbit erythrocytes [Barondes and Roberson (1987) Methods Enzymol. 138, 516-20] in TCS buffer (10 mM Tris, pH 7.6, 10 mM CaCl2, 150 mM NaCl). To compare the agglutination properties of both the purified and recombinant lectins, the two lectins were assayed under similar conditions. Because the eluted recombinant lectin was in 8 M urea, a solution of purified non-recombinant lectin was also brought to 8 M with a concentrated urea solution. The agglutination assay was performed using […] of either recombinant or native XL35 lectin in […] TCS and 8 M urea was added to wells of a 96-well microtiter plate. Next, […] of TCS alone or TCS containing 0.4 M EDTA or 1.0 M melibiose or 1.0 M sucrose was added to the wells and mixed with the lectin solution. To this solution, 50 ml of a 1:1 suspension of trypsinized, glutaraldehyde-fixed rabbit erythrocytes in TCS was added and the contents of the wells were mixed by trituration. The final concentration of urea in the wells was 2 M, while that of EDTA was 0.10 M and that of melibiose and sucrose were 0.25 M. Agglutination activity was scored after 1.5 hr. at room temperature using an inverted microscope on low power. After 1.5 hr in TCS plus 2 M urea, the purified oocyte lectin retained about 25-50% of the agglutination activity observed when it was assayed in TCS alone, but the relative abilities of various sugars to inhibit the agglutination reaction were similar in the presence or absence of urea. The recombinant lectin precipitated in the absence of urea; therefore, at least 2 M urea was used in the agglutination assay.
# recombinant XL35 [2] = conditions: in the presence of Ca++; literature (Clark 1987); cited from earlier work
smiles,measurement,setting,value
O=C(O)CN(CCN(CC(=O)O)CC(=O)O)CC(=O)O [EDTA],inhibition of recombinant XL35 agglutination activity,recombinant XL35 [1]; inhibitor at 0.1 M,completely inhibited
OC[C@H]1O[C@H](OCC2O[C@@H](O)[C@H](O)[C@@H](O)[C@@H]2O)[C@H](O)[C@@H](O)[C@H]1O (stereo partly shown) [melibiose],inhibition of recombinant XL35 agglutination activity,recombinant XL35 [1]; inhibitor at 0.25 M,completely inhibited
same,inhibition of agglutination of trypsinized rabbit erythrocytes by frog oocyte lectins,recombinant XL35 [2],strongly inhibited
OC[C@H]1O[C@@](CO)(O[C@H]2O[C@H](CO)[C@@H](O)[C@H](O)[C@H]2O)[C@@H](O)[C@@H]1O [sucrose],inhibition of recombinant XL35 agglutination activity,recombinant XL35 [1]; inhibitor at 0.25 M,not
